Experimental data as given in patent publication US20110097741A1, “PARTIAL T1R2 NUCLEIC ACID SEQUENCE, RECEPTOR PROTEIN AND ITS USE IN SCREENING ASSAYS” (priority 2006, published 2011).

Legend:
T1R2-TMD = target: T1, T1R2-TMD (Homo sapiens, UniProt Q8TE23); experiment: Fluo-4 calcium assay in HEK293 cells stably expressing G16gust44 and T1R2-TMD; type: cell-based
T1 construct: first 45 amino acids of rat somatostatin type 3 receptor plus linker) (N); expressed in transfected cells; host or cells: HEK-293-T-Rex based cell line stably expressing G16gust44
T1 sequence (Q8TE23 564-839): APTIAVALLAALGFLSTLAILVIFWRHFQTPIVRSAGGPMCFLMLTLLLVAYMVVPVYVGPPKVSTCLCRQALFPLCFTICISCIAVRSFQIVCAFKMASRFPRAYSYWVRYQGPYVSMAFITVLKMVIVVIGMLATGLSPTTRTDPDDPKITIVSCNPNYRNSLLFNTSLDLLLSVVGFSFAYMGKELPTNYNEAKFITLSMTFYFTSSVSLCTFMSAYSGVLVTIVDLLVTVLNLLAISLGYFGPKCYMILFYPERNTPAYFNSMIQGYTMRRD
From the text: (§1) All examples use the human receptors.
Fluo-4 is a fluorescent indicator for intracellular calcium and allows to determine changes in the calcium concentration, in particular an increase in response to receptor activation occurring after ligand addition (for example perillartine or methyl chavicol).
HEK293 cells stably expressing G alpha 16 gustducin 44 and transfected with T1R2-TMD as described in example 3 were used as host cells.
Black, clear-bottom 96-well plates were used for all assays. They were seeded the day before with 8500 transfected cells per well and maintained at 37° C. overnight in a growth medium appropriate for the cells used. For HEK293 cells, Dulbecco's Modified Eagle medium containing high glucose, L-glutamine, pyroxidine hydrochloride, and supplemented with 10% fetal bovine serum was used for growth and maintenance of the HEK293 cells.
(§2) At the time of the assay, the growth medium was discarded and cells were incubated for 1 hour (at 37° C. in the dark) with 50 μl of a calcium assay solution consisting of 1.5 μM Fluo-4 AM (Molecular Probes™, Invitrogen, US) and 2.5 μM probenicid (Sigma-Aldrich) dissolved in a C1 buffer solution. C1 buffer solution contains 130 mM NaCl, 5 mM KCl, 10 mM Hepes, 2 mM CaCl2 and 10 mM glucose (pH 7.4).
After the initial 1 hour loading period, the plates were washed 5 times with 100 μl per well of C1 buffer using an automated plate washer (BioTek) and after washing, the plate was further incubated for 30 minutes at room temperature in the dark to allow for complete de-esterification of the Fluo-4-AM. […]
(§3) For assay reading, the plate was placed in a FLIPR (fluorescence imaging plate reader (FLIPR-Tetra, Molecular Devices)), and receptor activation was initiated following addition of 20 μl of a 10× concentrated ligand stock solution.
(§4) Fluorescence was continuously monitored for 15 seconds prior to ligand addition and for 105 seconds after ligand addition (45-105 sec may be sufficient). […]
(§5) Fluorescence Increase=Maximum Fluorescence−baseline fluorescence,
wherein the baseline fluorescence represents the mean fluorescence calculated for the first 10 to 15 seconds prior to ligand addition.
As a negative control, mock transfected cells were exposed to the same concentration of ligand and the concentration of calcium traces not corresponding to a signal was determined. […]
The data was calculated as described in example 1 and illustrated the net increase in fluorescence over baseline following stimulation of the cells with 50 μM perillartine. […]
HEK293T cells that stably express G16gust44 and T1R2-TMD (formed as described in example 3) are loaded with the calcium dye Fluo-4, and their response to perillartine is measured by using fluorescent calcium signals as described in example 1. […]

[1] = system: host cells expressing only the G16gust44 chimeric G-protein; experiment: Fluo-4 calcium assay in negative control cells expressing G16gust44 only; type: cell-based, human
Protocol: As a negative control, mock transfected cells were exposed to the same concentration of ligand and the concentration of calcium traces not corresponding to a signal was determined.
As a result of said evalution, it was determined that when these cell lines are exposed to perillartine, many of cell clones respond to this stimulus with a significant increase in fluorescence which is greater than 10-times of the signal compared to the signal of the negative control (cells that express solely G16gust44 promiscuous G-protein but not T1R2-TMD).
The signals elicited by the test agents in cells that stably express G16gust44 and T1R2-TMD containing cells (formed as described in example 3) were compared to the signals obtained in cells that stably express G16gust44 and the T1R2/T1R3 heterodimer (formed as described in example 4), and as a negative control, cells that stably express G16gust44 were used.

T1R2/T1R3 heterodimer = target: T2, T1R2/T1R3 heterodimer (Homo sapiens, UniProt Q8TE23); experiment: Fluo-4 calcium assay in cells stably expressing G16gust44 and the T1R2/T1R3 heterodimer; type: cell-based; conditions: 4-parameter logistic fit
T2 construct: expressed in transfected cells; host or cells: HEK-293-T-Rex based cell line stably expressing G16gust44
T2 sequence (Q8TE23 20-839): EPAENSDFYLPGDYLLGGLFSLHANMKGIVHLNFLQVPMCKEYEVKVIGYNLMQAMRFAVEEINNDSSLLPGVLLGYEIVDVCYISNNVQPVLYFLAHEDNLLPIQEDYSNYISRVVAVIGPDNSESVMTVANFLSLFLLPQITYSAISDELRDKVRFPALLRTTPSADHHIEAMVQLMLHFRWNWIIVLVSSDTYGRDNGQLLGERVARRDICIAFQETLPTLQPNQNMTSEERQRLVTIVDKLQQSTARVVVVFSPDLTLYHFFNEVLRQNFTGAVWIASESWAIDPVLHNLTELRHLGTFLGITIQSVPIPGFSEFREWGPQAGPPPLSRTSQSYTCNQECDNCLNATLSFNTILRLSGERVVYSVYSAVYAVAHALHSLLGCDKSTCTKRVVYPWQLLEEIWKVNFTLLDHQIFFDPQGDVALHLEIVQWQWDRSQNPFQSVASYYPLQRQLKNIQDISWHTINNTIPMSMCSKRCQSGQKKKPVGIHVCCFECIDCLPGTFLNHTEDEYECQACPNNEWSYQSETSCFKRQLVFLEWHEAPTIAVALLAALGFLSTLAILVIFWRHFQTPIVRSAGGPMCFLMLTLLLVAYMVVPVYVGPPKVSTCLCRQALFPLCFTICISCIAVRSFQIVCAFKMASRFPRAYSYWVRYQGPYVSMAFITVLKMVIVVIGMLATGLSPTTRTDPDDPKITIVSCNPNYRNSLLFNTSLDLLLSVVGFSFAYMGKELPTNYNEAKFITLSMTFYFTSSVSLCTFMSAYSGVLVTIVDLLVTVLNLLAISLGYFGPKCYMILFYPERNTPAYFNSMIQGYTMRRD
T2 sequence (Q7RTX0 21-852 C757R partner): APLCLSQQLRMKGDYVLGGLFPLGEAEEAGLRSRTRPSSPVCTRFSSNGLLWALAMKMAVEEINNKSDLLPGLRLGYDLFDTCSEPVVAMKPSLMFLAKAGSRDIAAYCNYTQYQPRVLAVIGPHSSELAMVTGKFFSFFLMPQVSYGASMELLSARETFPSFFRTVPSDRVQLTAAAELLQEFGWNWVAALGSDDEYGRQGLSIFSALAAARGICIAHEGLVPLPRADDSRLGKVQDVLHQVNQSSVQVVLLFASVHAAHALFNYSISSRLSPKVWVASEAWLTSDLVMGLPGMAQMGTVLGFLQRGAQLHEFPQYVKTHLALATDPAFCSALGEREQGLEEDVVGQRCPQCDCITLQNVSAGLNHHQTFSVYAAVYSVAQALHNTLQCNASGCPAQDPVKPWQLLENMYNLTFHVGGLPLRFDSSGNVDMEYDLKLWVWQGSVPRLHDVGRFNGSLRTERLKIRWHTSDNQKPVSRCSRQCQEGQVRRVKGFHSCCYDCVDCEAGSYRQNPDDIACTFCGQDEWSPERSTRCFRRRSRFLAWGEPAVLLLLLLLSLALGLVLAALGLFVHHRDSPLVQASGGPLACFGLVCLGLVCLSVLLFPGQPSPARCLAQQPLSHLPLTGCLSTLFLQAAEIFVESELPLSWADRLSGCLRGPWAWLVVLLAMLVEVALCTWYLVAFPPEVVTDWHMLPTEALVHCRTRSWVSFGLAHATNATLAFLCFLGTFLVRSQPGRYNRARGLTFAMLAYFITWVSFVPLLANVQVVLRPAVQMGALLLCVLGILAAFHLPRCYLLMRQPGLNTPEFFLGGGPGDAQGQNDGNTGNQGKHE
Protocol: as §1
as §2, with “7.4). […]” for “7.4).”
as §3, §4, §5
wherein the baseline fluorescence represents the mean fluorescence calculated for the first 10 to 15 seconds prior to ligand addition. […]
Resistant colonies were expanded, and identified as containing the T1R2/T1R3 sweet heterodimer by their response to various sweetener compounds including sucrose, sucralose, aspartame and acesulfame K, which was determined via automated fluorimetric imaging on the FLIPR-Tetra instrumentation (Molecular Devices) using the methods described in example 1. […]

Structure (SMILES) | calcium signaling upon stimulation (T1R2-TMD; 50 μM, cells stably expressing human T1R2-TMD, not in negative control) | AVERAGE [RFU] (net increase in fluorescence over baseline) (T1R2-TMD; T1R2-TMD/G16gust44 cells, 50 μM perillartine, no tetracycline induction) | EC50 (T1R2-TMD; T1R2-TMD, 4-parameter logistic fit, doses 0.1 to 200 micromolar) [µM] | increase in fluorescence, signal compared to the signal of the negative control (T1R2-TMD; many cell clones, 50 μM perillartine, absence of tetracycline induction, vs cells expressing solely G16gust44) | AVERAGE [RFU] (net increase in fluorescence over baseline) ([1]; G16gust44 ONLY (neg. control) cells, 50 μM perillartine) | EC50 (T1R2/T1R3 heterodimer) [µM] | Negative control [RFU] ([1]; 100 micromolar, cells stably expressing G16gust44 only, average of two replicates)
C=C(C)[C@@H]1CC=C(/C=N/O)CC1 [perillartine] | Significant increases | 973.06 | 6.2 | greater than 10 times | 73.78 | 3.5 | –
C=CCc1ccc(OC)cc1 [Methyl chavicol] | – | – | – | – | – | – | 732.195
